# Source: patent publication US8796256B2 (Janssen Pharmaceutica NV, priority 2010, dated 2014)
# pEC50: −log10 of the molar value.
# Molecular target: T1, ERR1 (also known as ERR-α or ERR-1) (Homo sapiens, UniProt P11474)
# T1 sequence (P11474 193-421 limits assumed): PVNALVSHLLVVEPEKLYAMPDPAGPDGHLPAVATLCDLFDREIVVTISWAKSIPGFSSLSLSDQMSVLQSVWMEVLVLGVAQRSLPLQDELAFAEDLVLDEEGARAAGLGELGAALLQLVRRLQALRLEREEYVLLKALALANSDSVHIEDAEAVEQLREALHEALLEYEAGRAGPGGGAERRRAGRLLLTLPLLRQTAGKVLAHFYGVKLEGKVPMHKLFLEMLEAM
# Experiment: TR-FRET assay (disruption of co-activator peptide binding to ERR1 LBD)
# Assay type: biochemical
# Conditions: 6 nM 6His-ERR1LBD, 6 nM GST-SRC-2 peptide; average of 3 independent experiments
# How it was run: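 Homogeneous TR-FRET measuring displacement of GST-hSRC2 co-activator peptide (6 nM) from His-tagged ERR1 LBD (6 nM), detected with α-GST Eu cryptate (30 nM) and α-His-XL665 (7.5 nM). Buffer 25 mM Tris pH 8, 2.5 mM Hepes, 20 mM KCl, 1 mM DTT, 0.05 mg/mL delipidated BSA; equilibration 4-18 h at 25° C. Hyperbolic dose-response fit, mean of 3 experiments.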
row,pEC50,Structure (SMILES)
1,7.60,"CS(=O)(=O)n1ccnc1CN1C(=O)S/C(=C\c2ccc3c(cnn3Cc3ccc(Cl)cc3C(F)(F)F)c2)C1=O [Compound 410, (5Z)-5-({1-[4-Chloro-2-(trifluoromethyl)benzyl]-1H-indazol-5-yl}methylidene)-3-{[1-(methylsulfonyl)-1H-imidazol-2-yl]methyl}-1,3-thiazolidine-2,4-dione]"
2,7.11,"CC(C)(C)NS(=O)(=O)CN1C(=O)S/C(=C\c2ccc3c(cnn3Cc3ccc(Cl)cc3C(F)(F)F)c2)C1=O [Compound 160, N-tert-Butyl-1-[(5Z)-5-({1-[4-chloro-2-(trifluoromethyl)benzyl]-1H-indazol-5-yl}methylidene)-2,4-dioxo-1,3-thiazolidin-3-yl]methanesulfonamide]"
3,7.80,"O=C1S/C(=C\c2ccc3c(c2)nnn3Cc2ccc(Cl)cc2C(F)(F)F)C(=O)N1Cc1nc[nH]n1 [Compound 264, (5Z)-5-({1-[4-Chloro-2-(trifluoromethyl)benzyl]-1H-benzotriazol-5-yl}methylidene)-3-(1H-1,2,4-triazol-3-ylmethyl)-1,3-thiazolidine-2,4-dione]"
4,7.59,"CS(=O)(=O)NN1C(=O)S/C(=C\c2ccc3c(cnn3Cc3ccc(C(F)(F)F)cc3C(F)(F)F)c2)C1=O [Compound 360, N-[(5Z)-5-({1-[2,4-Bis(trifluoromethyl)benzyl]-1H-indazol-5-yl}methylidene)-2,4-dioxo-1,3-thiazolidin-3-yl]methanesulfonamide]"
5,7.15,"CN(C)C1(CN2C(=O)S/C(=C\c3ccc4c(cnn4Cc4ccc(Cl)cc4C(F)(F)F)c3)C2=O)CCC1 [Compound 315, (5Z)-5-({1-[4-Chloro-2-(trifluoromethyl)benzyl]-1H-indazol-5-yl}methylidene)-3-{[1-(dimethylamino)cyclobutyl]methyl}-1,3-thiazolidine-2,4-dione]"
6,7.34,"COc1ccc(Cn2ncc3cc(/C=C4\SC(=O)N(CCN5CCCC5)C4=O)ccc32)c(C(F)(F)F)c1 [Compound 17, (5Z)-5-({1-[4-Methoxy-2-(trifluoromethyl)benzyl]-1H-indazol-5-yl}methylidene)-3-(2-pyrrolidin-1-ylethyl)-1,3-thiazolidine-2,4-dione]"

# Further lines, the compound ahead of its results:
row,Structure (SMILES),pEC50
1,"O=C1S/C(=C\c2ccc3c(cnn3Cc3ccc(Cl)cc3C(F)(F)F)c2)C(=O)N1C[C@@H]1COCCN1 [Compound 198, (5Z)-5-({1-[4-Chloro-2-(trifluoromethyl)benzyl]-1H-indazol-5-yl}methylidene)-3-[(3R)-morpholin-3-ylmethyl]-1,3-thiazolidine-2,4-dione]",7.51
2,"COC(=O)[C@@H](COC(C)(C)C)N1C(=O)S/C(=C\c2ccc3c(cnn3Cc3ccc(Cl)cc3C(F)(F)F)c2)C1=O [Compound 212, Methyl (2R)-3-tert-butoxy-2-[(5Z)-5-({1-[4-chloro-2-(trifluoromethyl)benzyl]-1H-indazol-5-yl}methylidene)-2,4-dioxo-1,3-thiazolidin-3-yl]propanoate]",6.60
3,"NS(=O)(=O)N1CCC(N2C(=O)S/C(=C\c3ccc4c(cnn4Cc4ccc(Cl)cc4C(F)(F)F)c3)C2=O)CC1 [Compound 34, 4-[(5Z)-5-({1-[4-Chloro-2-(trifluoromethyl)benzyl]-1H-indazol-5-yl}methylidene)-2,4-dioxo-1,3-thiazolidin-3-yl]piperidine-1-sulfonamide]",7.64
4,"Cc1nc(CN2C(=O)S/C(=C\c3ccc4c(cnn4Cc4ccc(Cl)cc4C(F)(F)F)c3)C2=O)n[nH]1 [Compound 86, (5Z)-5-({1-[4-Chloro-2-(trifluoromethyl)benzyl]-1H-indazol-5-yl}methylidene)-3-[(5-methyl-1H-1,2,4-triazol-3-yl)methyl]-1,3-thiazolidine-2,4-dione]",7.05
5,"O=C1S/C(=C\c2ccc3c(cnn3Cc3ccc(C(F)(F)F)cc3C(F)(F)F)c2)C(=O)N1[C@@H]1CNCC[C@H]1O (relative stereo) [Compound 280, (5Z)-5-({1-[2,4-Bis(trifluoromethyl)benzyl]-1H-indazol-5-yl}methylidene)-3-[trans-4-hydroxypiperidin-3-yl]-1,3-thiazolidine-2,4-dione]",7.47
6,"O=C1S/C(=C\c2ccc3c(cnn3Cc3ccc(Cl)cc3C(F)(F)F)c2)C(=O)N1CC(O)C1CCNCC1 (centres unmarked) [Compound 285, (5Z)-5-({1-[4-Chloro-2-(trifluoromethyl)benzyl]-1H-indazol-5-yl}methylidene)-3-(2-hydroxy-2-piperidin-4-ylethyl)-1,3-thiazolidine-2,4-dione]",7.42
7,"O=C(O)C1CCC(N2C(=O)S/C(=C\c3ccc4c(c3)c(Cl)nn4Cc3ccc(Cl)cc3C(F)(F)F)C2=O)CC1 (centres unmarked) [Compound 302, 4-[(5Z)-5-({3-Chloro-1-[4-chloro-2-(trifluoromethyl)benzyl]-1H-indazol-5-yl}methylidene)-2,4-dioxo-1,3-thiazolidin-3-yl] cyclohexanecarboxylic acid]",8.70
8,"C[C@H](N)CN1C(=O)S/C(=C\c2ccc3c(cnn3Cc3ccc(C(F)(F)F)cc3C(F)(F)F)c2)C1=O [Compound 81, (5Z)-3-[(2S)-2-Aminopropyl]-5-({1-[2,4-bis(trifluoromethyl)benzyl]-1H-indazol-5-yl}methylidene)-1,3-thiazolidine-2,4-dione]",7.29
9,"CCN1CC[C@@H](N2C(=O)S/C(=C\c3ccc4c(cnn4Cc4ccc(C(F)(F)F)cc4C(F)(F)F)c3)C2=O)[C@H](F)C1 (relative stereo) [Compound 336, (5Z)-5-({1-[2,4-Bis(trifluoromethyl)benzyl]-1H-indazol-5-yl}methylidene)-3-[trans-1-ethyl-3-fluoropiperidin-4-yl]-1,3-thiazolidine-2,4-dione]",6.53
10,"O=C(O)CCCN1C(=O)S/C(=C\c2ccc3c(cnn3Cc3ccc(Cl)cc3C(F)(F)F)c2)C1=O [Compound 97, 4-[(5Z)-5-({1-[4-Chloro-2-(trifluoromethyl)benzyl]-1H-indazol-5-yl}methylidene)-2,4-dioxo-1,3-thiazolidin-3-yl]butanoic acid]",7.33
11,"O=C(O)[C@@H]1C[C@@H](N2C(=O)S/C(=C\c3ccc4c(cnn4Cc4ccc(Cl)cc4C(F)(F)F)c3)C2=O)CN1 [Compound 181, (4R)-4-[(5Z)-5-({1-[4-Chloro-2-(trifluoromethyl)benzyl]-1H-indazol-5-yl}methylidene)-2,4-dioxo-1,3-thiazolidin-3-yl]-L-proline]",7.60
12,"O=C(O)c1cccc(CN2C(=O)S/C(=C\c3ccc4c(cnn4Cc4ccc(Cl)cc4C(F)(F)F)c3)C2=O)c1 [Compound 378, 3-{[(5Z)-5-({1-[4-Chloro-2-(trifluoromethyl)benzyl]-1H-indazol-5-yl}methylidene)-2,4-dioxo-1,3-thiazolidin-3-yl]methyl}benzoic acid]",7.18
13,"O=C(O)C(Cc1c[nH]cn1)N1C(=O)S/C(=C\c2ccc3c(cnn3Cc3ccc(Cl)cc3C(F)(F)F)c2)C1=O (centres unmarked) [Compound 229, 2-[(5Z)-5-({1-[4-Chloro-2-(trifluoromethyl)benzyl]-1H-indazol-5-yl}methylidene)-2,4-dioxo-1,3-thiazolidin-3-yl]-3-(1H-imidazol-4-yl)propanoic acid]",7.12
14,"CN1CC[C@@H](N2C(=O)S/C(=C\c3ccc4c(cnn4Cc4ccc(C(F)(F)F)cc4C(F)(F)F)c3)C2=O)[C@H](F)C1 (relative stereo) [Compound 278, (5Z)-5-({1-[2,4-Bis(trifluoromethyl)benzyl]-1H-indazol-5-yl}methylidene)-3-(trans-3-fluoro-1-methylpiperidin-4-yl)-1,3-thiazolidine-2,4-dione]",7.15
